What was measured:
Format in all cases: toxicity, cell-based, Cricetulus griseus
Settings in all cases: chinese hamster, 168 h, time 7 day
CHO [1] = experiment: Cytotoxicity against CHO cells expressing AGT G41R variant and glycolate oxidase assessed as reduction in cell viability at 50 uM measured after 7 days by crystal violet staining assay
CHO [2] = experiment: Cytotoxicity against CHO cells expressing AGT and glycolate oxidase assessed as reduction in cell viability at 50 uM measured after 7 days by crystal violet staining assay
CHO [3] = experiment: Cytotoxicity against CHO cells expressing AGT G41R variant and glycolate oxidase assessed reduction in cell viability at 50 uM measured after 7 days in presence of pyridoxine by crystal violet staining assay

| SMILES | Activity (CHO [1]) | Activity (CHO [2]) | Activity (CHO [3]) |
| --- | --- | --- | --- |
| Cl.NOCc1ccc(F)cc1F | Non-Toxic | Non-Toxic | – |
| NOCc1cc2ccccc2s1 | – | Non-Toxic | – |
| COc1c(C)cnc(CON)c1C | Non-Toxic | Non-Toxic | Non-Toxic |
| NOCc1cccc(-c2ccc(C(F)(F)F)cc2)c1 | Non-Toxic | Non-Toxic | Non-Toxic |
| CN1CCN(c2cccc(CON)c2)CC1 | Toxic | Toxic | Toxic |
